Test results reported in patent publication US20220184162A1, “PREPARATIONS CONTAINING BERRY EXTRACTS FOR USE IN TREATING CANCER” (Evonik Operations GmbH, priority 2019, published 2022).

Assays:
[1] = system: isolated PBMCs (non-activated); experiment: Activating effect on isolated non-activated PBMCs (CellTrace CFSE proliferation, flow cytometry); assay type: cell-based, human; conditions: for Median Fluorescence Day 7 Average / Median Fluorescence Day 2 Average: CellTrace CFSE; for Median Fluorescence Day 2 Average: no activation stimulus
Description: (§1) Upon recognition of a foreign substance (foreign peptide presented on MHC) by the T cell receptor (TCR) and stimulation of the co-receptor CD28 the T cells start to proliferate. Thus, proliferation is a clear indication of T cell activation. Another classic activation marker for T cells is CD25, the high affinity receptor for the interleukin IL-2. This protein is not expressed by resting T cells and transcription is induced by TCR signaling. Thus, the presence of CD25 on the surface of T cells is a clear indicator of T cell activation. On the contrary, T cell exhaustion correlates with the signaling-induced expression of PD-1 on the surface of the T cells. To test the impact of substances on T cell activation, proliferation as well as CD25 and PD-1 upregulation, are used as readouts. Primary human Peripheral blood mononuclear cells (PBMCs) isolated from the blood of healthy donors (including primary T-cells) were used. PBMC cells represent a heterogenic population with 45-80% T cells, 5-20% B cells, 10-25% monocytes and 5-20% NK cells.
(§2) CellTrace™ stock solution was prepared according to the manual; addition of 15 μL DMSO to the CellTrace™ reagent and mixed well. Cell suspension was adjusted to 10^6 cells/mL in RPMI without FBS before addition of 1 μL CellTrace™ stock solution to each mL of cell suspension. After 20 minutes incubation (protected from light) of the cells at room temperature, five times the volume of culture medium was added and then again incubated for 5 min at room temperature. Afterwards the cells were centrifuged (300×g for 5 min) and the pellet resuspended in fresh culture medium. As last step the cells were incubated at 37° C. with 5% CO2 for 1-2 hours before the set-up of the experiment.
(§3) Following CFSE labelling and recovering at 37° C. with 5% CO2, cells were mixed with the extract as follows: 20 μL of extract were placed in a 96-well u-bottom culture plate as triplicates, then 180 μL cell suspension was added on top and mixed. Final concentration of the cells was 5*10^4 cells/well (=2.5*10^5 cells/mL).
(§4) Sample format: 96 well with 200 μL/well and 10,000 events measured per sample. FACS (fluorescence activated cell sorting) gating was performed via SSC (sideward scatter) versus FSC (forward scatter) density blot. A gate has been applied to identify viable cells. Percentage of viable cells was determined for all samples of a 96-well plate.
(§5) CellTrace™ CFSE median fluorescence (488 nm excitation and a 530/30 nm bandpass emission filter): From viable cell population single cells were determined and viable, single cells within the gate defined in a histogram to evaluate the level of fluorescence intensity of cells labelled with CellTrace™ CFSE. Cell proliferation was followed for 7 days. With increasing level of proliferation median fluorescence decreases, shown as shift of peak from right to left within the flow cytometer; non-labeled cells shown on the far-left side. Median fluorescence was determined as read-out. Earliest observable influence on proliferation and activation was expected after 3 days of incubation with the test compounds.
All cells (40*10^6) of one vial of frozen PBMC's (non-activated) were used for CFSE staining and cultured with extracts as follows: Day 0-3 in RPMI 1640 with 10% FBS, 1% HEPS (10 mM); day 3-7 in RPMI 1640 with 10% FBS, 1% HEPS (10 mM) and 100 U/mL IL-2.
(§6) Water, DMSO or DMF were used as negative control; UCHT1 (anti-CD3) antibody as positive control. The samples plate set-up was used as follows:
(§7) Half medium change with fresh extracts of final concentration was done every day.
To evaluate, if the chosen test compounds could have an activating effect on isolated PBMCs (Peripheral Blood Mononuclear Cells) and induce them to proliferate, PBMCs were incubated together with the test compounds in different concentrations. […]

activated PBMCs = experiment: Influence on proliferation of activated PBMCs (anti-CD3/anti-CD28, IL-2; CellTrace CFSE); assay type: cell-based, human; conditions: for Median Fluorescence Day 2 Average / Median Fluorescence Day 3 Average: CellTrace CFSE, activated PBMCs, 100 U/ml IL-2; for proliferation of activated PBMCs on day 3 (in words): versus water, maltodextrin or solvent control
Description: as §1, §2, §3, §4, §5
PBMCs isolated from blood were activated for 2 days on an activating surface with anti-CD3 (UCHT1) and anti-CD28. Activated PBMCs were then induced to proliferate by adding 1000 U/ml IL-2. Therefore, the cells were transferred to a new dish without activating antibodies and 2 days later the activated cells were used to set up the experiment. 40*10^6 cells were used for CFSE staining and cultured with extracts in RPMI 1640 with 10% FBS, 1% HEPS (10 mM), 0.1% β-mecaptoethanol (50 μM), 0.5% Pen/Strep and 100 U/ml IL-2.
as §6, §7
In the next experiment the effect of the test compounds on the proliferation of activated PBMCs was evaluated. […]

[2] = system: Jurkat cells (T cell leukemia); experiment: Cell viability (Cell Titer Glo, ATP luminescence); assay type: cell-based; conditions: increasing concentrations; FIG. 8A, FIG. 9
Protocol: Similar cell viability assays were performed with additional cell lines (HeLa, Jurkat, Mt4 and THP-1) and using the Cell Titer Glo Assay. In order to further evaluate the effect of Healthberry® 865 on T cell populations and specifically the CD4+ populations, additional cell viability analysis was performed. On the basis that Healthberry® 865 has an influence on the CD4+ cell populations and additionally on the activation status of T cells, specifically T cell leukemia/lymphoma cell lines as Jurkat (T cell leukemia) and Mt4 (HTLV-I positive; human T-cell lymphotropic virus type I retrovirus causes adult T-cell leukemia-lymphoma) cells were chosen as in vitro models. Furthermore, control cell lines were chosen, which are not CD4^+ such as HeLa cells (epithelial cervix carcinoma) or which represent another type of leukemia such as THP-1 (acute monocytic leukemia). […] Cell viability tests were performed with the T cell leukemia cell lines Jurkat (FIG. 8A) and Mt4 (FIG. 8B) as well as with control cell lines such as the CD4 negative cervix carcinoma cell line HeLa (FIG. 8C) and the monocytic leukemia cell line THP 1 (FIG. 8D). Cell viability was evaluated based on ATP amount and via luminescence measurement. Samples were tested in triplicates.

[3] = system: CD8+ T cells in activated PBMCs; experiment: Analysis of T cell populations via flow cytometry, CD8+; assay type: cell-based, human; conditions: FIG. 6
Protocol: (§8) Sample preparation and plate set-up was used as described before in the T cell activation assay. Primary PBMCs were seeded on activating surface (anti-CD3, anti-CD28) with medium containing 1000 U/ml IL-2 for 2 days. The activated PBMCs were then cultured with the prepared sample concentrations in medium containing 100 U/ml IL-2 every day from day 3 on after isolation. Half medium change with fresh samples and flow cytometry measurement was performed every day. All cells for flow cytometry were labelled with an antibody mixture containing Annexin V_Alexa594, anti-CD4_APC and anti-CD8_PE for CD-marker as well as live-dead staining.
(§9) PBMS were activated by using an activating surface and the addition of Interleukin-2 to the cell culture media. The activated PBMCs, which contain T-cells as the most prominent cell type, were treated with the berry extracts or the anthocyanins from day 3 on after isolation. To evaluate the different T cell population flow cytometry analysis were performed with anti-CD4 and anti-CD8 antibodies in combination with Annexin V staining as live-dead-staining.

[4] = system: CD4+ T cells in activated PBMCs; experiment: Analysis of T cell populations via flow cytometry, CD4+; assay type: cell-based, human; conditions: FIG. 7
Protocol: as §8, §9

SMILES | proliferation of activated PBMCs on day 3 (in words) (activated PBMCs) | Median Fluorescence Day 7 Average ([1]; 15 μg/mL, IL-2 from day 3) | Median Fluorescence Day 2 Average ([1]; 15 μg/mL) | Median Fluorescence Day 7 Average ([1]; 30 μg/mL, IL-2 from day 3) | Median Fluorescence Day 2 Average ([1]; 30 μg/mL) | Median Fluorescence Day 7 Average ([1]; 75 μg/mL, IL-2 from day 3) | Median Fluorescence Day 2 Average ([1]; 75 μg/mL) | Median Fluorescence Day 2 Average (activated PBMCs; 15 μg/mL) | Median Fluorescence Day 3 Average (activated PBMCs; 15 μg/mL) | Median Fluorescence Day 2 Average (activated PBMCs; 30 μg/mL) | Median Fluorescence Day 3 Average (activated PBMCs; 30 μg/mL) | Median Fluorescence Day 2 Average (activated PBMCs; 75 μg/mL) | Median Fluorescence Day 3 Average (activated PBMCs; 75 μg/mL) | also measured
CC1=C(/C=C/C(C)=C/C=C/C(C)=C/C=C/C=C(C)/C=C/C=C(C)/C=C/C2=C(C)C(=O)[C@@H](O)CC2(C)C)C(C)(C)C[C@H](O)C1=O [Astaxanthin, reference compound] | slower proliferation |  |  |  |  |  |  |  |  |  |  |  |  | Median Fluorescence Day 7 Average ([1]; 2 μg/mL, IL-2 from day 3): 20201; Median Fluorescence Day 2 Average ([1]; 2 μg/mL): 33336; Median Fluorescence Day 7 Average ([1]; 4 μg/mL, IL-2 from day 3): 19444; Median Fluorescence Day 2 Average ([1]; 4 μg/mL): 32336; Median Fluorescence Day 7 Average ([1]; 10 μg/mL, IL-2 from day 3): 16442; Median Fluorescence Day 2 Average ([1]; 10 μg/mL): 36178; Median Fluorescence Day 2 Average (activated PBMCs; 2 μg/mL): 14190; Median Fluorescence Day 3 Average (activated PBMCs; 2 μg/mL): 6502; Median Fluorescence Day 2 Average (activated PBMCs; 4 μg/mL): 15365; Median Fluorescence Day 3 Average (activated PBMCs; 4 μg/mL): 10055; Median Fluorescence Day 2 Average (activated PBMCs; 10 μg/mL): 19750; Median Fluorescence Day 3 Average (activated PBMCs; 10 μg/mL): 15342
C[C@@H]1O[C@@H](OC[C@H]2O[C@@H](Oc3cc4c(O)cc(O)cc4[o+]c3-c3ccc(O)c(O)c3)[C@H](O)[C@@H](O)[C@@H]2O)[C@H](O)[C@H](O)[C@H]1O [C3R, cyanidin 3-rutinoside] | dose-dependent and significant decrease of proliferation | 21030 | 33603 | 21539 | 33737 | 22855 | 34486 | 14630 | 6153 | 15317 | 7228 | 17032 | 11086 | 
OC[C@H]1O[C@@H](Oc2cc3c(O)cc(O)cc3[o+]c2-c2cc(O)c(O)c(O)c2)[C@H](O)[C@@H](O)[C@@H]1O [D3G, Delphinidin 3-glucoside] |  |  |  |  |  |  |  |  |  |  |  |  |  | cell viability (ATP amount, luminescence) [2]: specific reduction
C[C@@H]1O[C@@H](OC[C@H]2O[C@@H](Oc3cc4c(O)cc(O)cc4[o+]c3-c3cc(O)c(O)c(O)c3)[C@H](O)[C@@H](O)[C@@H]2O)[C@H](O)[C@H](O)[C@H]1O [D3R, delphinidin 3-rutinoside] | dose-dependent and significant decrease of proliferation | 20821 | 34772 | 25171 | 34646 | 44248 | 37453 | 14407 | 6602 | 15685 | 8150 | 19716 | 13927 | change of CD8+ T cells in comparison to controls [3]: most significant effects; change of CD4+ T cells in comparison to controls [4]: most significant effects; activation / proliferation of non-activated PBMCs (in words) ([1]; 2 days up to 7 days incubation, IL-2 from day 3): slight decrease of proliferation
